Experimental data published in ChEMBL document CHEMBL4715706, “Discovery of Benzotriazolo[4,3-d][1,4]diazepines as Orally Active Inhibitors of BET Bromodomains” (ACS Med Chem Lett, 2016).
The source made the active and inactive calls. No cut-off for these calls is given here.

What was measured:
[1] = Intrinsic clearance in mouse liver microsomes
[2] = Protein binding in mouse plasma
[3] = Protein binding in rat plasma; assay type: ADME, cell-free; details: read-out: PPB (converted)
[4] = Protein binding in dog plasma
CREB-binding protein = CREB-binding protein (Homo sapiens, UniProt Q92793); experiment: Inhibition of His-tagged CBP (unknown origin) using biotinylated acetylated peptide as substrate measured after 20 mins by AlphaLISA assay
Peregrin = target: T1, Peregrin (Homo sapiens, UniProt P55201); experiment: Inhibition of BRPF1 (unknown origin) measured after 70 mins by TR-FRET assay
T1 sequence (P55201 whole entry): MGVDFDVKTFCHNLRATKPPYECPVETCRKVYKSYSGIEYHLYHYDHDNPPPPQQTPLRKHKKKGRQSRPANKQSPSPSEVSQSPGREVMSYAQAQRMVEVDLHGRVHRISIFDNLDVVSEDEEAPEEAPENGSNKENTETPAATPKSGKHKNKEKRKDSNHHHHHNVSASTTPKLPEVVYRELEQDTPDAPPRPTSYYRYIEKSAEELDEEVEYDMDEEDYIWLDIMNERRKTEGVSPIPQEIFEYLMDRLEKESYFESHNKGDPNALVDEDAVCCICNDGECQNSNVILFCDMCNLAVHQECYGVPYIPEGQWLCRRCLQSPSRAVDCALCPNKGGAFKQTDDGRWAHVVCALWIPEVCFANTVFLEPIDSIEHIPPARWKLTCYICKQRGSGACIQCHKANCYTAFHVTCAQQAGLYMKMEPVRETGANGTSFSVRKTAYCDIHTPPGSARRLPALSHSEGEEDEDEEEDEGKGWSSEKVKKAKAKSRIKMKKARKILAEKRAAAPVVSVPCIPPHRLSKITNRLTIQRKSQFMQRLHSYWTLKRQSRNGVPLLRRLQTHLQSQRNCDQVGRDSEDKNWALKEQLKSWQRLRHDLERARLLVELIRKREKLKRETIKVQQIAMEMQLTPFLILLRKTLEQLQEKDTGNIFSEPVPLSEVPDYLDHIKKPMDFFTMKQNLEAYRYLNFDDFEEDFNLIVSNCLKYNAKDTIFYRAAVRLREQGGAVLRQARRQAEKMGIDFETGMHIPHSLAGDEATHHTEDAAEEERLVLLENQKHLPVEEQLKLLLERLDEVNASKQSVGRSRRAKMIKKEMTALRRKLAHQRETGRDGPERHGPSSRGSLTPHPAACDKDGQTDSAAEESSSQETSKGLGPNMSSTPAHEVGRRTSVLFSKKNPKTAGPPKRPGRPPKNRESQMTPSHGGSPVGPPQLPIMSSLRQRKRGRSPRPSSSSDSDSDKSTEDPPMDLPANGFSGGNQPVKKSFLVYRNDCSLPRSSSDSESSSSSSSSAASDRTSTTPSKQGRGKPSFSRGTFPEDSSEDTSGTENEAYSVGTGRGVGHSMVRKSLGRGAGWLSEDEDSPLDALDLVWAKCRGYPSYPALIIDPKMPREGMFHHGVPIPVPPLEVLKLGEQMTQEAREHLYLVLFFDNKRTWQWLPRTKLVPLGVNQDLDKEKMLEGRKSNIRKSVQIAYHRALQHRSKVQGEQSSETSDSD

[5] = target: T2, Bromodomain-containing protein 4 (Homo sapiens, UniProt O60885); experiment: Inhibition of BRD4 BD2 (unknown origin) using biotinylated JQ1 analog as substrate measured after 20 mins by AlphaLISA assay
[6] = target: Bromodomain-containing protein 3 (Homo sapiens, UniProt Q15059); experiment: Inhibition of BRD3 BD1 (unknown origin) using biotinylated JQ1 analog as substrate measured after 20 mins by AlphaLISA assay
[7] = target: SWI/SNF-related matrix-associated actin-dependent regulator of chromatin subfamily A member 4 (Homo sapiens, UniProt P51532); experiment: Inhibition of His-tagged BRG1 (unknown origin) using biotinylated acetylated peptide as substrate measured after 20 mins by AlphaLISA assay
[8] = Clearance in rat at 1 mg/kg, iv; assay type: ADME, organism-based; details: in vivo
[9] = Half life in rat at 1 mg/kg, iv; assay type: ADME, organism-based; details: in vivo
[10] = AUClast in rat at 10 mg/kg, po; assay type: ADME, organism-based; design: time 0 - last, route oral, dose 10 mg/kg; details: in vivo
Mus musculus = experiment: In vivo inhibition of BET in BALB/c mouse assessed as suppression of LPS-induced IL-6 level in plasma at 15 mg/kg, po pretreated with compound followed by LPS challenge and measured after 2 hrs by ELISA; assay type: functional, organism-based
[11] = Clearance in rat at 1 mg/kg, iv relative to liver blood flow; assay type: ADME, organism-based; details: in vivo
[12] = target: T2, Bromodomain-containing protein 4
Description: Inhibition of His/FLAG-tagged BRD4 BD1 (unknown origin) using histone H4-TetraAcetylated-biotin peptide as substrate incubated for 20 mins by AlphaLISA assay

Chain of Bromodomain-containing protein 3 (Q15059 whole entry): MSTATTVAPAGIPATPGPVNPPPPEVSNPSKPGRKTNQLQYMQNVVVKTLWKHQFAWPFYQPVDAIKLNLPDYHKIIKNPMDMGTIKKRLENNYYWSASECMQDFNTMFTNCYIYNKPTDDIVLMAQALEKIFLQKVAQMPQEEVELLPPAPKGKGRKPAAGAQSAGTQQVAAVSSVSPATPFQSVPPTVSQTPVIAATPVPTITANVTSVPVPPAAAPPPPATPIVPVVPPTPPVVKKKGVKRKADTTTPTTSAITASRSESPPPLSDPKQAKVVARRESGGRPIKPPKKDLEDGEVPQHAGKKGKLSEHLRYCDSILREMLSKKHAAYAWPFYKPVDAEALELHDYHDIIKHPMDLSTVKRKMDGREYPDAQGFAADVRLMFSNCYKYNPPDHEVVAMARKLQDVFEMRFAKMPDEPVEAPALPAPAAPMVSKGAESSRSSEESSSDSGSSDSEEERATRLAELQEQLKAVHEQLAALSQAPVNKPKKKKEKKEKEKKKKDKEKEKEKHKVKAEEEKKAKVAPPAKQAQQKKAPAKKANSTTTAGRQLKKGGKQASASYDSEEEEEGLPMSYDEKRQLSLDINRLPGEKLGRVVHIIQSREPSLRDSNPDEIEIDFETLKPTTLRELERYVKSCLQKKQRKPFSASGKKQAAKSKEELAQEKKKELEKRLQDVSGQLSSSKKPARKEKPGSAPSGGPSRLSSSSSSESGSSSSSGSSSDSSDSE
Chain of CREB-binding protein (Q92793 whole entry): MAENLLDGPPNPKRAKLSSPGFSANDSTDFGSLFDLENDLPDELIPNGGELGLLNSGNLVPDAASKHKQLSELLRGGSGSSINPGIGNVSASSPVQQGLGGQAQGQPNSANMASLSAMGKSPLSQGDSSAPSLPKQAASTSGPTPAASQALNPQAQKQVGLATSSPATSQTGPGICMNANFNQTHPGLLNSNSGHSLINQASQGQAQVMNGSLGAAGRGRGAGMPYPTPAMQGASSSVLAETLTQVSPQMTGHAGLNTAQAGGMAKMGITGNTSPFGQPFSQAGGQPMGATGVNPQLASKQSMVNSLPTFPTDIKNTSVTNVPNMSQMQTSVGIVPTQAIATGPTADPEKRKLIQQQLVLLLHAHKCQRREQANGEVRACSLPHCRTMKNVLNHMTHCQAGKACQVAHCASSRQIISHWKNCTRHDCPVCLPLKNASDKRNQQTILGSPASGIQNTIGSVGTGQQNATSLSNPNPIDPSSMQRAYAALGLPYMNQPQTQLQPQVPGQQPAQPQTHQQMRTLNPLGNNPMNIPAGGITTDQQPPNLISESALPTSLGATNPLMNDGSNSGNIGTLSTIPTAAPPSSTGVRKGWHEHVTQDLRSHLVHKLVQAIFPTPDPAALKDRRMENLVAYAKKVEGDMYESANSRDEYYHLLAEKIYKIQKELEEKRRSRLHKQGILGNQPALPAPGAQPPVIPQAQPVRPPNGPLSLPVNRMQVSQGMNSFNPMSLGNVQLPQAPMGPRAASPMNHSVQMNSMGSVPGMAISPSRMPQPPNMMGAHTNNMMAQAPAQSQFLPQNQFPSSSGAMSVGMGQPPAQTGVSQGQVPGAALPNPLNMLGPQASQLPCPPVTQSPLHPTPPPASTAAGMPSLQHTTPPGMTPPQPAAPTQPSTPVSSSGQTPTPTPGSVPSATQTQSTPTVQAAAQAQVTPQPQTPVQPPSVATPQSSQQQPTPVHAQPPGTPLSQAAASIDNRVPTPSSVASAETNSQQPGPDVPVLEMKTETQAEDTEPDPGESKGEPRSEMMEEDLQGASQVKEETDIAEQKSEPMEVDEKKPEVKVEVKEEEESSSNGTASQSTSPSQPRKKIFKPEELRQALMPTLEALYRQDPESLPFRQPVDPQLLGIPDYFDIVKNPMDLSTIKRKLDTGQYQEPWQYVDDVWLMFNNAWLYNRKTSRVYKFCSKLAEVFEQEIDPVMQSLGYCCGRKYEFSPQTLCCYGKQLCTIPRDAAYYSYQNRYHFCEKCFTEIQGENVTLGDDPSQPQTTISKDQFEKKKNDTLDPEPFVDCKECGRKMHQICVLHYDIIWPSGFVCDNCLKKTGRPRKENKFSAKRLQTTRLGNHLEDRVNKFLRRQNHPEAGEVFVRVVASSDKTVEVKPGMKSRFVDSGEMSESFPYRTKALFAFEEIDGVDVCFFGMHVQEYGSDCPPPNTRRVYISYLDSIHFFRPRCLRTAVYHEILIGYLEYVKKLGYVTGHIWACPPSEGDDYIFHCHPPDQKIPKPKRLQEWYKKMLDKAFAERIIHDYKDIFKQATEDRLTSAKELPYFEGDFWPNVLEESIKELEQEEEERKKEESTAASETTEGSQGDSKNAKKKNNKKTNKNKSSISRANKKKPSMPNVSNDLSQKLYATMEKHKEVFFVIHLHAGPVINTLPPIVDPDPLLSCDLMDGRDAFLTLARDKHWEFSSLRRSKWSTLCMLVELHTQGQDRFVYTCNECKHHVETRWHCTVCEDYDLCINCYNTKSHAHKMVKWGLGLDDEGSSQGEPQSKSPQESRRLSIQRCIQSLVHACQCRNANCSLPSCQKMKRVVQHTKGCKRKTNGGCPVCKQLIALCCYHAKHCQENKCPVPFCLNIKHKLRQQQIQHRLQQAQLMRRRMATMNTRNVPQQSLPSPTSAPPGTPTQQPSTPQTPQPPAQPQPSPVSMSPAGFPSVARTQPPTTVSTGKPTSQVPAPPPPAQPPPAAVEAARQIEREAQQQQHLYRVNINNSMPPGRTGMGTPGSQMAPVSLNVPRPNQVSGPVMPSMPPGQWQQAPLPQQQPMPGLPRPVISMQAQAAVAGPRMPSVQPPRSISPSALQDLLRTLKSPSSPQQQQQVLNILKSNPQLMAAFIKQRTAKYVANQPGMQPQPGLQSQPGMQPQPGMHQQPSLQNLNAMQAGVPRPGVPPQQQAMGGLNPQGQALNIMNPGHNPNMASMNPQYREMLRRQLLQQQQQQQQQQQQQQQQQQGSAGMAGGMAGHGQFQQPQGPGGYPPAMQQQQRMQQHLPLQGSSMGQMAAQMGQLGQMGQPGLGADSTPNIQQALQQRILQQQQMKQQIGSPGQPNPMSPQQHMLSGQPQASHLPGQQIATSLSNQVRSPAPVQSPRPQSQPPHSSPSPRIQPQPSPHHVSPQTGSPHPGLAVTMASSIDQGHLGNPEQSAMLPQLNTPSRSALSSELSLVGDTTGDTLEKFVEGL
Chain of SWI/SNF-related matrix-associated actin-dependent regulator of chromatin subfamily A member 4 (P51532 whole entry): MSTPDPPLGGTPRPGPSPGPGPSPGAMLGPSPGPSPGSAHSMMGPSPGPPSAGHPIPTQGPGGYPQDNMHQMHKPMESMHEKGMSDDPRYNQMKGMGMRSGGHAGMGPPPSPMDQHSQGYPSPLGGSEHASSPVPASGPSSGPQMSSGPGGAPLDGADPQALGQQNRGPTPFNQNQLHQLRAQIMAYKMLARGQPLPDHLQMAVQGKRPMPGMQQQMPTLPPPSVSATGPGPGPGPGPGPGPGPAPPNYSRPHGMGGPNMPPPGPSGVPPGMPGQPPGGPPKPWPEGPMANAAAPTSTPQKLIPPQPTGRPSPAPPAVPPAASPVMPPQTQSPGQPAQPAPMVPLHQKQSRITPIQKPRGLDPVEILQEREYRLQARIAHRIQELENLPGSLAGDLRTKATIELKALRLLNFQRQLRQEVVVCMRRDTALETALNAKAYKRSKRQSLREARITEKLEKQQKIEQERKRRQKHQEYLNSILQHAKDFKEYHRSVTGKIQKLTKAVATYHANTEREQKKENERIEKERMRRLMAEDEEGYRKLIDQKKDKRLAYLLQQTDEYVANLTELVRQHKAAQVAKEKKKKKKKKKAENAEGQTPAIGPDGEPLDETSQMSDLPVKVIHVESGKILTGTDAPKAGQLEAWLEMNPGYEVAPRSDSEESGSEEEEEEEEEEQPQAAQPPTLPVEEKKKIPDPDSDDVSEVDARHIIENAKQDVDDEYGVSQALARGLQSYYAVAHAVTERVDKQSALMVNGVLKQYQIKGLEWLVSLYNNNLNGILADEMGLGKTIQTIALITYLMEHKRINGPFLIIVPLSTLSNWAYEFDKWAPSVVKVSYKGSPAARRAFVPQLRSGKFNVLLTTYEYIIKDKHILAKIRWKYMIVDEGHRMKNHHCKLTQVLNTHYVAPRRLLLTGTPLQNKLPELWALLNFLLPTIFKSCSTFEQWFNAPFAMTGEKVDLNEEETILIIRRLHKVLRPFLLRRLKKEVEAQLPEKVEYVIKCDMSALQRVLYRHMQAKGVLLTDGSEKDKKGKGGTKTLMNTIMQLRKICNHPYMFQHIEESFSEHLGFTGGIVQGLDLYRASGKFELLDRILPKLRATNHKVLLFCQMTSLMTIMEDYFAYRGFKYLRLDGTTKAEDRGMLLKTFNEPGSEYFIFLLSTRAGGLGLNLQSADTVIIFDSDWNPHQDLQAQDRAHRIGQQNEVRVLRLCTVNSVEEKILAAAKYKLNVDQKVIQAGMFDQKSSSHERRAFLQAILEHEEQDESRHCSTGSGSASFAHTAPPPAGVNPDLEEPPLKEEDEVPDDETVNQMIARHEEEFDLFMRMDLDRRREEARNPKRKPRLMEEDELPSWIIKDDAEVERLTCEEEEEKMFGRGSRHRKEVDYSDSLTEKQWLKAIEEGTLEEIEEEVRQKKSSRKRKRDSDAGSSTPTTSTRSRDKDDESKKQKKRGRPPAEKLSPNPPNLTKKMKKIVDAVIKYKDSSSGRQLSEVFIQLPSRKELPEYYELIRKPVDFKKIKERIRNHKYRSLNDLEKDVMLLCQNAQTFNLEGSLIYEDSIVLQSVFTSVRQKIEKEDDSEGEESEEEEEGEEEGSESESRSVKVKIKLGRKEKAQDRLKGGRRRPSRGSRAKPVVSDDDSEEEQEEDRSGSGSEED

- microsomal CLint [1]: 16 µL/min/mg
- fraction unbound [2]: 0.02
- fraction unbound [3]: 0.04
- fraction unbound [4]: 0.04
- IC50 (CREB-binding protein): 2.2 µM
- IC50 (Peregrin): > 15 µM
- IC50 [5]: 0.003 µM
- IC50 [6]: 0.003 µM
- IC50 [7]: > 15 µM
- clearance [8]: 63.3 mL/min/kg
- half-life [9]: 40.2 min
- AUC(0-t) [10]: 1.4 µM·h
- CL [11]: 90%
- IC50 [12]: 0.015 µM
Structure (SMILES): Cc1nnc2n1-c1ccc(-c3ccc(N)nc3)cc1N(c1ccc(Cl)cc1)C[C@H]2C
- inhibition (Mus musculus): Active
